Experiments:
[1] = test system: normal, T1DM and T2DM mice; assay: Plasma insulin levels before and after treatment; assay type: in vivo, ICR mice; settings: for Plasma insulin Before-treatment: metformin 300 mgkg^−1 group; for Plasma insulin After-treatment: metformin 300 mgkg^−1 i.p.
Description: The 4-week-old male ICR mice were purchased from the Animal Center of the College of Medicine, National Taiwan University (Taipei, Taiwan) with delicate humane care. This animal study was conducted by following the University ethical guidelines and the ‘Guide for the Care and Use of Laboratory Animals’ published by the US National Institutes of Health (NIH publication no. 85-23, revised 1996). The animal experiments were approved by the Institutional Animal Care and Use Committee (IACUC) of the National Taiwan University (IACUC No. 20110073). Animals were housed in a room at the constant temperature, 22±1° C., with 12 hours light and dark cycles.
(§1) After three days of acclimatization, the mice had free access to a standard rodent chow (normal mice), a standard rodent chow after single […] streptozotocin (STZ) intraperitoneal injection (T1DM mice), and a fat-rich chow diet and fructose-sweetened water (T2DM mice) for 4 weeks. The induction of Type 1 DM was assessed and confirmed when the mice had plasma glucose levels ≧350 mgdL^−1, accompanied with polyuria, hyperphagia and decreased body weight. The induction Type 2 DM in the mice was assessed by measuring fasting plasma glucose levels and confirmed when plasma glucose level was ≧150 mgdL^−1 after the 4-week induction. The animals were assigned randomly into three groups, with seven animals in each group. In group I, the mice were treated with vehicle, 2% DMSO in normal saline, as the negative control. In group II, the mice were intraperitoneally treated with borapetoside A (0.1-10 mgkg^−1). In group Ill, the positive control, the mice received intraperitoneally metformin (300 mgkg^−1; Sigma Chemical Co., St. Louis, Mo., U.S.A.) or insulin (0.5 IUkg^−1; Insulin Actrapid® HM; Novo Nordisk, Denmark). In the acute study, mice under anesthesia received a single intraperitoneal administration of borapetoside A, negative control, or positive control. In the subacute study, mice received intraperitoneal administrations of borapetoside A, vehicle, or insulin twice a day for seven days.
(§2) Blood samples were collected from the orbital vascular plexus of the mice under anesthesia. Blood samples were then centrifuged at 13000 rpm for 5 min, and the plasma samples were collected and kept on ice prior to the assay. The plasma glucose concentration was measured by Glucose Kit Reagent (Biosystems S. A., Barcelona, Spain) following the manufacturer's instructions, and the insulin levels were estimated using mouse insulin ELISA kit (Mercodia AB, Uppsala, Sweden).

[2] = test system: normal mice and mice with type 2 DM; assay: Intraperitoneal glucose tolerance test (IPGTT); assay type: in vivo, ICR mice; settings: normal and type 2 DM mice; borapetoside A 0.1, 1 and 10 mgkg^−1; metformin
Description: as §1, §2
The mice were maintained under anesthesia throughout the procedure. Glucose (2.0 gkg^−1) was administered intraperitoneally. Blood samples were collected from the orbital vascular plexus at 0, 30, 60, 120 min. The concentrations of the plasma glucose were measured, and the values of AUC were calculated accordantly.

CN(C)C(=N)N=C(N)N [Metformin, metformin, reference compound]
Plasma insulin Before-treatment ([1]; Normal mice): 66.6 ± 1.3 pmol/L
Plasma insulin After-treatment ([1]; Normal mice): 72 ± 3.1 pmol/L
Plasma insulin Before-treatment ([1]; T1DM mice): 22.4 ± 0.4 pmol/L
Plasma insulin After-treatment ([1]; T1DM mice): 22.7 ± 0.3 pmol/L
Plasma insulin Before-treatment ([1]; T2DM mice): 148.1 ± 15.2 pmol/L
Plasma insulin After-treatment ([1]; T2DM mice): 182.0 ± 27.7 pmol/L
increase of plasma glucose level at 30 min in IPGTT, compared to the vehicle group [2]: significantly suppressed

Reference: US20150265682A1, “THERAPEUTIC METHODS AND COMPOSITIONS FOR TREATING DIABETES” (Orient Europharma Co., Ltd., priority 2014, published 2015)
